Assay results taken from patent US6452037B1, “Multioligonanilinated fullerenes” (priority 2001, dated 2002).

Assays:
[1] = tested on: Fibrosarcoma cells (CCRC 60037); test: In vitro irradiation-induced cytotoxicity, MTT cell viability, fibrosarcoma cells; type: cell-based; settings: fluorescence light irradiation time 60 minutes
Procedure: (§1) Two types of tumor cells were used in this study, and prepared as follows: Fibrosarcoma cells (CCRC 60037) and sarcoma 180 cells (obtained form Biochemical Institute of Chung Shan Medical and Dental College, Taiwan) were maintained and cultured in an α-modified eagle medium (MEM) containing L-glutamine and phenol red. It was supplemented with 10% fetal bovine serum and antibiotics (100 units/mL of penicillin G and 100 μg/mL streptomycin sulfate). The cells were incubated in the dark in 95% humidified air plus 5% CO2, and harvested by treatment with trypsin-EDTA. The harvested cells were suspended in an α-MEM medium at the concentration of 1×10^4 cells per mL.
The cell suspension thus obtained was placed into wells of a 24-well plate (500 μL each) and pre-incubated at 37° C. for 24 hours. F10A16S solutions at various concentrations (0-10 μM) were then added to the wells (500 μL each). The wells were irradiated with fluorescence light (27 watts) for 0-60 minutes. The distance between the plate cover and the light source was set at 5-6 cm. After irradiation, the cells were further incubated for 48 hours. […] The absorbance at 540 nm was correlated with the quantity of formazon, and thus with the quantity of dehydrogenase enzyme or the relative number of living cells (i.e., viability). […]

[2] = tested on: Fibrosarcoma cells (CCRC 60037) and sarcoma 180 cells; test: In vitro irradiation-induced cytotoxicity, MTT cell viability, tumor cells (cell type not specified for the result); type: cell-based
Procedure: as §1
The cell suspension thus obtained was placed into wells of a 24-well plate (500 μL each) and pre-incubated at 37° C. for 24 hours. F10A16S solutions at various concentrations (0-10 μM) were then added to the wells (500 μL each). The wells were irradiated with fluorescence light (27 watts) for 0-60 minutes. The distance between the plate cover and the light source was set at 5-6 cm. After irradiation, the cells were further incubated for 48 hours. A solution of 3-(4,5-dimethylthiazol-2-yl)-2,5-diphenyl-tetrazolium bromide (MTT, 100 μL, 0.5% in PBS, 100 μL each) was then added to each of the wells to react with mitochrondrial dehydrogenase in the living cells to produce formazon. Each cell suspension was again incubated at 37° C. for 3 hours. The suspension medium was then discarded. Formazon formed in cells from each well was then extracted with DMSO (1.0 mL each). The DMSO extract solution was immediately used for optical measurement. The absorbance at 540 nm was correlated with the quantity of formazon, and thus with the quantity of dehydrogenase enzyme or the relative number of living cells (i.e., viability). […] With an irradiation time of 60 minutes, a sharp loss of viable cells was observed when F10A16S concentration was increased from 2.5 to 5.0 μM. A maximal photodynamic cytotoxicity efficacy of >90% was obtained at an F10A16S concentration of 5.0-10.0 μM and an irradiaion time of 60 minutes.

[3] = tested on: Murine sarcoma 180 cells subcutaneous tumors; test: In vivo photodynamic therapy study in tumor-bearing mice; parameters: species or system male ICR mice; settings: 10 mg/kg intraperitoneal, 100 J/cm^2, day 30
Procedure: A photodynamic therapy study was conducted in male ICR mice (Charles River Japan origin Crl: CD-1® (ICR)BR). The mice were 8 weeks old, weighted 37±0.8 g, housed in polycarbonated shoe-box cages on hardwood bedding (5 mice/cage) under controlled conditions (temperature 22±1° C., relative humidity 55±15%, and light/dark cycle 12/12 hours), and allowed free access to a laboratory rodent diet (#5K55, Purina Mills, Inc., St. Louis, Mo.) and water.
Murine sarcoma 180 cells were maintained by transplantation to other mice in the abdominal cavity biweekly. Subcutaneous tumors were induced by […] injection of 1×10^7 tumor cells (about 0.1-0.15 ml ascitic fluid) to the subcutaneous region of abdominal cavities of the mice for this study, and were allowed to proliferate at the inoculation sites for 5-7 days until they reached a size with a diameter of 10±2 mm. […]
After the treatment, the mouse was examined every 5 days for 30 days. Efficacy of the irradiation therapy was evaluated by measuring the body weights and tumor volumes of the mouse. At day 30, the mice were euthanatized by carbon dioxide asphyxiation, and the weights of the body, liver, kidney, spleen, heart, and tumor, were measured. […]

ferricytochrome C = test: In vitro irradiation-induced superoxide generation (ferricytochrome C reduction, absorbance at 550 nm); settings: 25 μM F10A4S, fluorescence light 27 watts, irradiation time 0, 30, 60, 90 minutes
Procedure: The solution thus obtained was added to each well of a 24-well plate, and exposed to fluorescence light source (27 watts) for 0-90 min. The distance between the plate cover and the light source was set at 5-6 cm. The extent of reduction of ferricytochrome C to ferrocytochrome C was evaluated by optical measurement. The increase of the absorbance at 550 nm corresponded to the increase of the quantity of ferrocytochrome C.
In a separate experiment, the presence of superoxide radicals in the solution was confirmed by selective removal of superoxide radicals with superoxide dismutase (SOD, 75 or 150 units).

[4] = Water solubility noted for the isolated product; type: physicochemical
Procedure: 200 mg F12A16 and 15.0 mL DMF were added to a dry flask containing a stirring bar and a condenser under N2. To the DMF solution were either sequentially added 1.0 mL DBU, 0.5 mL 1,4-butane sultone, and stirred at 100° C. for 12.0 hours or sequentially added 70 mg sodium hydride −30° C., stirred for 30 minutes, added 0.5 mL 1,4-butane sultone, and stirred at 60° C. for 6.0 hours. It was then quenched with 100 mL dilute HCl-acetone solution to effect precipitation of a solid. The solid was collected after centrifugation, washed twice with acetonitrile, and dissolved in 15 mL DMSO-H2O (1:5) in the presence of 100 mg Na2CO3. The DMSO-H2O solution was slowly added to acetone, resulting in precipitation of the product F12A16S. The product, in blue, was collected after centrifugation, washed with DMF and acetone, and then dried under vacuum at 40° C. to yield 210-230 mg water-soluble F12A16S.
80 mg F10A4 in 20 mL DMSO, and 60 mg sodium hydride were added into a dry flask equipped with a stirring bar and a condenser at ambient temperature under N2. The solution thus obtained was stirred for 30 minutes, followed by addition of 0.2 mL 1,4-butane sultone. The reaction mixture was slowly heated to 70° C. and stirred for 12.0 hours, and was quenched with 100 mL dilute HCl-acetonitrile solution to effect precipitation. […]

| Substance | IC50 [1] [nM] | cell viability with irradiation ([2]; 0-10 μM, irradiation 0-60 minutes) | maximal photodynamic cytotoxicity efficacy ([2]; 5.0-10.0 μM, irradiation time 60 minutes) [%] | cytotoxicity in the absence of light irradiation ([2]; no irradiation, highest concentration 10 μM) | tumor weight less than that of the tumor control group ([3]; laser irradiation at 514 nm) | tumor weight less than that of the tumor control group ([3]; laser irradiation at 633 nm) [%] | production of superoxide radicals upon irradiation (ferricytochrome C) | solubility in water [4] |
| --- | --- | --- | --- | --- | --- | --- | --- | --- |
| deca(hexadecaanilino)adduct [F10A16S] | 2900 | decrease in cell viability in both dose-dependent and irradiation time-dependent manners | > 90 | no cystoxicity was observed | roughly 60% | ~99 | – | – |
| sulfobutylated deca(tetraanilino)-pentakis(methano)-[60]fullerene decacarbamide [F10A4S] | – | – | – | – | – | – | increase systematically in a time-dependent manner | water-soluble |
| sulfobutylated fullerene dodeca(hexadecaanilino)adduct [F12A16S] | – | – | – | – | – | – | – | water-soluble |
